Common to all, as to assay type: biochemical
Common to all, as to conditions: procedures of Example 14 (TR-FRET)
On the technique in general: Time-resolved FRET reads energy transfer from a long-lived donor to a nearby acceptor.

For one assay, the target named is JNK3 (Homo sapiens (Human), UniProt P53779). The assay can be described thus: JNK3 TR-FRET kinase assay (Example 14). In short, it runs like this:
(§1)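 Two TR-FRET formats were used for each JNK isoform. In the direct one, preactivated aJNK phosphorylated EPIW-1 at about 1 mM final ATP (RT, 15 min). Both were EDTA-quenched and read by HTRF.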

For a further assay, the target named is JNK1 (Homo sapiens (Human), UniProt P45983). The assay can be described thus: JNK1 TR-FRET kinase assay (Example 14). In short, it runs like this:
as §1

Another assay has as its target JNK2 (Homo sapiens (Human), UniProt P45984). The assay can be described thus: JNK2 TR-FRET kinase assay (Example 14). Put shortly:
as §1

Data on 29 compounds can be found in patent publication US9796706B2, “Inhibitors of Jun N-terminal kinase” (IMAGO PHARMACEUTICALS, INC., priority 2009, dated 2017).

Molecules are shown by their SMILES.

JNK2, sequence (P45984 whole entry, species assumed): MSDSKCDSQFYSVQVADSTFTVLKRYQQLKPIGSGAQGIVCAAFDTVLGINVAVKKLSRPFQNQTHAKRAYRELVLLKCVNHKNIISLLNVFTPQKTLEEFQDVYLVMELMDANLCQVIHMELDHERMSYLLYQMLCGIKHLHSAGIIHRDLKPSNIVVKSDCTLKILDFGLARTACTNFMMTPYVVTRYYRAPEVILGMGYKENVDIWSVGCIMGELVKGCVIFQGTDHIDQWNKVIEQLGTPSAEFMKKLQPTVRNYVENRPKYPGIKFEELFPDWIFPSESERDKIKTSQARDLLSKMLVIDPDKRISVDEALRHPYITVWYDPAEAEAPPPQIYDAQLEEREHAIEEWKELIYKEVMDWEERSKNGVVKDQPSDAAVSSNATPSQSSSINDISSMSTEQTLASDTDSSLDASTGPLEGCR
JNK3, sequence (P53779 whole entry, species assumed, canonical isoform): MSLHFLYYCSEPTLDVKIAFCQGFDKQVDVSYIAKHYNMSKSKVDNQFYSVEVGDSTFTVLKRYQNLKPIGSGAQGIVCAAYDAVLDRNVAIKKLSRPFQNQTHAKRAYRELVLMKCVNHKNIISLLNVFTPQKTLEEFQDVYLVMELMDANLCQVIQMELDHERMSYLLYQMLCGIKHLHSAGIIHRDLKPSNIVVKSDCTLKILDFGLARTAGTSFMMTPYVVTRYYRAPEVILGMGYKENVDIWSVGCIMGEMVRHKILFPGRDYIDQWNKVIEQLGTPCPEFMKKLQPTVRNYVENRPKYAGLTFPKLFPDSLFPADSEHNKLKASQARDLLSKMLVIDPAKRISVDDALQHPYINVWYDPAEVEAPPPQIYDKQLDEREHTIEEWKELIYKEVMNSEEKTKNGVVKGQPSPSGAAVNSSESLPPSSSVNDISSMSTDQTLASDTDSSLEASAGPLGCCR
JNK1, sequence (P45983 other isoform, or with tags, fused parts or gaps isoform P45983-2, species assumed): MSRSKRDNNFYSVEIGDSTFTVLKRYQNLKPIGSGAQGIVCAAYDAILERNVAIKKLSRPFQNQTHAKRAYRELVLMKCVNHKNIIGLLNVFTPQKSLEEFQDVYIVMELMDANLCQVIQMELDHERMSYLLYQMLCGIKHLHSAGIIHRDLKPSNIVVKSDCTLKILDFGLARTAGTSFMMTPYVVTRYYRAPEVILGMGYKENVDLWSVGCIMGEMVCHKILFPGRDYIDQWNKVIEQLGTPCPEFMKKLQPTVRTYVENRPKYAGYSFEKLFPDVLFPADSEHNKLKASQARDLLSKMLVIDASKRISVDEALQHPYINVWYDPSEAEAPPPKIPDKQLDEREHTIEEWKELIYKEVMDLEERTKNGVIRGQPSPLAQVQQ

As to `Cn1cnc(-c2c(Cl)csc2NC(=O)Cn2c(=O)ccn3nccc23)n1` [N-(4-chloro-3-(1-methyl-1H-1,2,4-triazol-3-yl)thiophen-2-yl)-2-(5-oxopyrazolo[1,5-a]pyrimidin-4(5H)-yl)acetamide], the IC50 against JNK3, at JNK1 and against JNK2 was < 100 nM throughout.
Consider `O=C(Cn1c(=O)ccc2c(F)cccc21)Nc1scc(Br)c1-c1ncn[nH]1` [N-(4-bromo-3-(1H-1,2,4-triazol-5-yl)thiophen-2-yl)-2-(5-fluoro-2-oxoquinolin-1(2H)-yl)acetamide], for which the IC50 at JNK3, at JNK1 and against JNK2 was < 100 nM in each case.
`N#Cc1csc(NC(=O)Cn2c(=O)ccc3cc(C(F)(F)F)ccc32)c1-n1nccn1` [N-(4-cyano-3-(2H-1,2,3-triazol-2-yl)thiophen-2-yl)-2-(2-oxo-6-(trifluoromethyl)quinolin-1(2H)-yl)acetamide]: the IC50 against JNK3, against JNK1 and at JNK2 was < 100 nM each time.
With `CN1CCN(CCCn2cnc(-c3c(Cl)csc3NC(=O)Cn3c(=O)ccc4cc(C(F)(F)F)ccc43)n2)CC1` [N-(4-chloro-3-(1-(3-(4-methylpiperazin-1-yl)propyl)-1H-1,2,4-triazol-3-yl)thiophen-2-yl)-2-(2-oxo-6-(trifluoromethyl)quinolin-1(2H)-yl)acetamide], the results for the IC50 on JNK3, against JNK1 and on JNK2 were < 100 nM, < 100 nM and 100 to 10000 nM, respectively.
On to `O=C(Cn1c(=O)ccc2cc(Cl)ccc21)Nc1scc(Br)c1-c1ncn[nH]1` [N-(4-bromo-3-(1H-1,2,4-triazol-5-yl)thiophen-2-yl)-2-(6-chloro-2-oxoquinolin-1(2H)-yl)acetamide], for which the IC50 against JNK3, against JNK1 and against JNK2 was < 100 nM throughout.
As for `O=C(Cn1c(=O)ccn2nccc12)Nc1scc(Cl)c1-c1ncn[nH]1` [N-(4-chloro-3-(1H-1,2,4-triazol-5-yl)thiophen-2-yl)-2-(5-oxopyrazolo[1,5-a]pyrimidin-4(5H)-yl)acetamide], the IC50 at JNK3, at JNK1 and against JNK2 was < 100 nM in each case.
For `Cc1n[nH]c(-c2c(Cl)csc2NC(=O)CN2C(=O)CCc3ncccc32)n1` [N-(4-chloro-3-(3-methyl-1H-1,2,4-triazol-5-yl)thiophen-2-yl)-2-(2-oxo-3,4-dihydro-1,5-naphthyridin-1(2H)-yl)acetamide], the IC50 at JNK3, against JNK1 and against JNK2 was < 100 nM each time.
For the compound `O=C(CN1C(=O)CCc2ccc(Br)cc21)Nc1scc(Br)c1-c1ncn[nH]1` [2-(7-bromo-2-oxo-3,4-dihydroquinolin-1(2H)-yl)-N-(4-bromo-3-(1H-1,2,4-triazol-5-yl)thiophen-2-yl)acetamide], the IC50 at JNK3, against JNK1 and at JNK2 was 100 to 10000 nM each time.
Take `O=C(CN1C(=O)CCc2cnccc21)Nc1ccsc1-c1cscn1` [2-(2-oxo-3,4-dihydro-1,6-naphthyridin-1(2H)-yl)-N-(2-(thiazol-4-yl)thiophen-3-yl)acetamide]: the IC50 at JNK3, on JNK1 and at JNK2 was 100 to 10000 nM each time.
Consider `O=C(CN1C(=O)CCc2ccccc21)Nc1scc(Cl)c1-c1ncn[nH]1` [N-(4-chloro-3-(1H-1,2,4-triazol-5-yl)thiophen-2-yl)-2-(2-oxo-3,4-dihydroquinolin-1(2H)-yl)acetamide], for which the IC50 at JNK3, on JNK1 and on JNK2 was < 100 nM each time.
Regarding `O=C(Cc1ccc(C(F)(F)F)c2ncccc12)Nc1scc(Cl)c1-c1ncn[nH]1` [N-(4-chloro-3-(1H-1,2,4-triazol-5-yl)thiophen-2-yl)-2-(8-(trifluoromethyl)quinolin-5-yl)acetamide], the IC50 at JNK3 is 100 to 10000 nM; against JNK1 it was < 100 nM; against JNK2 it was 100 to 10000 nM.
Consider `O=C(Cc1cccc2ncccc12)Nc1ccsc1-c1nnc[nH]1` [N-(2-(1H-1,2,4-triazol-5-yl)thiophen-3-yl)-2-(quinolin-5-yl)acetamide], for which the IC50 against JNK3, against JNK1 and against JNK2 was 100 to 10000 nM in each case.
For `N#Cc1csc(NC(=O)Cn2c(=O)ccc3cc(C(F)(F)F)ccc32)c1-n1nnc2ccccc21` [N-(3-(1H-benzo[d][1,2,3]triazol-1-yl)-4-cyanothiophen-2-yl)-2-(2-oxo-6-(trifluoromethyl)quinolin-1(2H)-yl)acetamide], the IC50 at JNK3, at JNK1 and against JNK2 was 100 to 10000 nM each time.
As to `O=C(CN1C(=O)CCc2ccccc21)Nc1ccsc1-c1c[nH]cn1` [N-(2-(1H-imidazol-4-yl)thiophen-3-yl)-2-(2-oxo-3,4-dihydroquinolin-1(2H)-yl)acetamide], the figures for the IC50 at JNK3, on JNK1 and at JNK2 were 100 to 10000 nM, 100 to 10000 nM and > 10000 nM, respectively.
Turning to `O=C(CN1C(=O)CCc2ccccc21)Nc1scc(Br)c1-c1ncn[nH]1` [N-(4-bromo-3-(1H-1,2,4-triazol-5-yl)thiophen-2-yl)-2-(2-oxo-3,4-dihydroquinolin-1(2H)-yl)acetamide], the IC50 against JNK3, at JNK1 and at JNK2 was < 100 nM each time.
On to `Cc1n[nH]c(-c2c(C)csc2NC(=O)Cc2cccc3nccnc23)n1` [N-(4-methyl-3-(3-methyl-1H-1,2,4-triazol-5-yl)thiophen-2-yl)-2-(quinoxalin-5-yl)acetamide], for which the IC50 at JNK3, at JNK1 and against JNK2 was 100 to 10000 nM each time.
For `O=C(Cn1c(=O)ccc2cnccc21)Nc1ccsc1-c1cscn1` [2-(2-oxo-1,6-naphthyridin-1(2H)-yl)-N-(2-(thiazol-4-yl)thiophen-3-yl)acetamide], the IC50 against JNK3 was 100 to 10000 nM; against JNK1, < 100 nM; against JNK2, 100 to 10000 nM.
For the compound `O=C(Cn1c(=O)ccc2cc(C(F)(F)F)ccc21)Nc1scc(Cl)c1-c1ncn(CCCN2CCOCC2)n1` [N-(4-chloro-3-(1-(3-morpholinopropyl)-1H-1,2,4-triazol-3-yl)thiophen-2-yl)-2-(2-oxo-6-(trifluoromethyl)quinolin-1(2H)-yl)acetamide], the IC50 on JNK3, against JNK1 and on JNK2 was < 100 nM in each case.
`Cc1csc(-c2sccc2NC(=O)Cc2cccc3cnccc23)n1` [2-(isoquinolin-5-yl)-N-(2-(4-methylthiazol-2-yl)thiophen-3-yl)acetamide]: the IC50 at JNK3, on JNK1 and against JNK2 was 100 to 10000 nM each time.
Turning to `Cn1ccc(-c2sccc2NC(=O)Cc2cccc3ccccc23)n1` [N-(2-(1-methyl-1H-pyrazol-3-yl)thiophen-3-yl)-2-(naphthalen-1-yl)acetamide], the IC50 against JNK3 is > 10000 nM; against JNK1, > 10000 nM; against JNK2, > 50000 nM.
Take `O=C(Cc1cncc2ccccc12)Nc1scc(Br)c1-c1nnc[nH]1` [N-(4-bromo-3-(4H-1,2,4-triazol-3-yl)thiophen-2-yl)-2-(isoquinolin-4-yl)acetamide]: the IC50 is < 100 nM against JNK3, < 100 nM against JNK1 and 100 to 10000 nM against JNK2.
Consider `N#Cc1ccc2ccc(=O)n(CC(=O)Nc3scc(Br)c3-c3ncn[nH]3)c2c1` [N-(4-bromo-3-(1H-1,2,4-triazol-5-yl)thiophen-2-yl)-2-(7-cyano-2-oxoquinolin-1(2H)-yl)acetamide], for which the IC50 at JNK3, on JNK1 and against JNK2 was < 100 nM throughout.
Regarding `O=C(Cn1c(=O)ccc2cc(C(F)(F)F)ccc21)Nc1sc(Cl)cc1-c1ncn[nH]1` [N-(5-chloro-3-(1H-1,2,4-triazol-5-yl)thiophen-2-yl)-2-(2-oxo-6-(trifluoromethyl)quinolin-1(2H)-yl)acetamide], the IC50 at JNK3 is 100 to 10000 nM; against JNK1, < 100 nM; against JNK2, 100 to 10000 nM.
Consider `Cn1cnc(-c2c(C#N)csc2NC(=O)Cc2cccc3ncccc23)n1` [N-(4-cyano-3-(1-methyl-1H-1,2,4-triazol-3-yl)thiophen-2-yl)-2-(quinolin-5-yl)acetamide], for which the IC50 against JNK3, against JNK1 and against JNK2 was < 100 nM throughout.
With `O=C(Cc1ccc(OCCCN2CCCCC2)cc1)Nc1ccsc1-c1cscn1` [2-(4-(3-(piperidin-1-yl)propoxy)phenyl)-N-(2-(thiazol-4-yl)thiophen-3-yl)acetamide], the IC50 on JNK3, on JNK1 and at JNK2 was 100 to 10000 nM in each case.
Regarding `O=C(Cc1ccnc2ccccc12)Nc1scc(Br)c1-c1nnc[nH]1` [N-(4-bromo-3-(4H-1,2,4-triazol-3-yl)thiophen-2-yl)-2-(quinolin-4-yl)acetamide], the IC50 against JNK3 was < 100 nM; on JNK1 it was < 100 nM; against JNK2 it was 100 to 10000 nM.
For the compound `O=C(Cc1cccc2cnccc12)Nc1ccsc1-c1nccs1` [2-(isoquinolin-5-yl)-N-(2-(thiazol-2-yl)thiophen-3-yl)acetamide], the 50% inhibitory concentration (IC50) against JNK3, on JNK1 and against JNK2 was 100 to 10000 nM in each case.
Regarding `COc1ccc(CC(=O)Nc2ccsc2-n2cncn2)cc1` [N-(2-(1H-1,2,4-triazol-1-yl)thiophen-3-yl)-2-(4-methoxyphenyl)acetamide], the IC50 against JNK3 is > 10000 nM; against JNK1 it was > 10000 nM; at JNK2, > 50000 nM.
In the case of `COc1ccc(CC(=O)Nc2ccsc2-c2nc(C3CCCO3)n[nH]2)cc1` (stereo not drawn) [2-(4-methoxyphenyl)-N-(2-(3-(tetrahydrofuran-2-yl)-1H-1,2,4-triazol-5-yl)thiophen-3-yl)acetamide], the IC50 on JNK3, at JNK1 and at JNK2 was 100 to 10000 nM throughout.

In general, IC50 refers to the point on the concentration scale where inhibition reaches its midpoint. Higher therefore signals a need for much substance.
